From PMC8287724, “Reducing Auditory Nerve Excitability by Acute Antagonism of Ca^2+-Permeable AMPA Receptors” (Frontiers in Synaptic Neuroscience, 2021)

How the values were obtained:
[1] = tested on: ANF postsynaptic terminals; set-up: method as in Puel et al., 1994; conditions: chemical lesion, basal cochlear turn perfusion ref Puel et al., 1994; cited from earlier work
[2] = tested on: ribbon synapses and ANF dendrites in the inner spiral plexus; test: Apical cochlear perfusion of kainic acid, immunohistofluorescence and confocal microscopy; assay type: in vivo, guinea pig; conditions: 2 mM in artificial perilymph, apical perfusion of scala tympani
Protocol: Following cardiac perfusion of 4% PFA in 0.1 M phosphate buffer and cervical dislocation, the temporal bone was immediately harvested, and the cochlea was isolated. Each cochlea was post-fixed for 20 min at 4°C in a dish with 4% PFA, where a small fenestration was made in the round window, oval window, and the apex of each cochlea to gently flush with 1 mL of fixative. Each cochlea was then decalcified in 10% EDTA at room temperature for 6 h, exchanging EDTA every 2 h. The decalcified outer bone was removed to reveal the underlying cochlear spiral. Small pieces of cochlear turns were placed in buffer overnight at 4°C in Triton X-100 with donkey serum. […]
The method of apical intracochlear drug delivery has previously been well-detailed (Lichtenhan et al., [2016a]). […] Response waveforms were recorded immediately prior to apical drug perfusion to establish a baseline, throughout perfusion which took 6 min, and then immediately after perfusion, from a round window electrode. […]

[3] = tested on: cochlear afferent synapses; set-up: method as in earlier work; conditions: ref Robertson, 1983; Puel et al., 1998; Furman et al., 2013; Hickman et al., 2020; cited from earlier work

In the case of `NC(CCCP(=O)(O)O)C(=O)O` [D-AP5], the “effect of pre-perfusion on ANF terminal swelling” value [1] is listed as “not”.

In the case of `O=c1[nH]c2cc([N+](=O)[O-])c([N+](=O)[O-])cc2[nH]c1=O` [DNQX], the “effect of pre-perfusion on ANF terminal swelling” value [1] is given as “prevented”.

For `C=C(C)[C@H]1CN[C@H](C(=O)O)[C@H]1CC(=O)O` [KA, kainic acid], the “effect on innervation and ribbon synapses” value [2] was “void of innervation in the ISP and ribbon synapse disintegration”.

In the case of `O=C(O)c1cc(=O)c2ccccc2[nH]1` [kynurenic acid], the “effect on synapse loss and osmotic damage after synaptopathic noise exposure” value [3] is listed as “blocked”.
